How the values were obtained:
[1] = tested on: patients with newly diagnosed, previously untreated AML; experiment: Kaplan-Meier time-to-event analyses and clinical outcomes (OS, EFS, RFS, relapse) in the Phase 1 study; type: in vivo, human
Text: (§1) Statistical Analysis. […] Intra-patient dose escalation was not permitted. […] Database lock was on Apr. 30, 2020.

[2] = tested on: patients with newly diagnosed, previously untreated AML; experiment: Phase 1 dose-escalation study of alvocidib followed by cytarabine/daunorubicin (7+3): response assessment by ELN Guidelines; type: in vivo, human
Procedure: Methods: Study Population. This was a Phase 1, open-label, multicenter, dose-escalation study of alvocidib followed by cytarabine/daunorubicin (7+3) in patients with AML (NCT03298984). Patients aged 18-65 years with newly diagnosed, previously untreated AML and pathological confirmation of bone marrow (BM) blasts ≥20% were eligible. Key inclusion criteria included: Eastern Cooperative Oncology Group (ECOG) performance status (PS) ≤2, serum creatinine level ≤1.8 mg/dL, alanine aminotransferase (ALT) and aspartate aminotransferase (AST) ≤5 times upper limit of normal (ULN), total bilirubin ≤2.0 mg/dL, and left ventricular ejection fraction (EF) >45%. Patients were excluded if they had previous treatment for AML (with the exception of hydroxyurea), and were diagnosed with acute promyelocytic leukemia (APL-M3) or core-binding factor AML ((CBF-AML: t(8;21); inv(16); t(16;16)). All patients provided written informed consent. This study was conducted as per the Declaration of Helsinki after approval by ethics committee of each participating center.
Treatment Plan: Induction.
Consolidation. Patients who achieved a complete remission (CR) received 2 to 4 cycles of consolidation therapy with high dose cytarabine (HiDAC) 3 gm/m^2 IV every 12 hours on days 1, 3 and 5 upon full hematological recovery (absolute neutrophil count >1×10^−3/L and platelets >1×10^1/L). HiDAC was permitted to be dose reduced to 1.5 gm/m^2 IV every 12 hours on days 1, 3 and 5 in those >60 years. Allogeneic stem cell transplantation was permitted after induction per standard of care but was recommended after at least 1 cycle of HiDAC consolidation in those who achieved CR.
Response Assessments. Response assessment was performed by a bone marrow aspirate and biopsy at the time of full hematologic recovery or by day 50 and day 60 of 1 versus 2 induction cycles, respectively. Response to therapy was assessed by standardized ELN Guidelines. In those who achieved CR and received consolidation therapy, a bone marrow aspirate and biopsy was performed after cycle 2 of HiDAC, after completion of consolidation therapy, and at any suspicion of relapse.
as §1

[3] = tested on: patients with newly diagnosed, previously untreated AML; experiment: Minimal residual disease (MRD) analysis of bone marrow by flow cytometry in the Phase 1 study; type: in vivo, human
Procedure: Minimal Residual Disease (MRD) Analysis. MRD was assessed in bone marrow samples at the time of response by a uniform central assay (Hematologics, Inc.) in an exploratory cohort, as has been previously described. Samples were first incubated with antibodies for 20 minutes at room temperature. Red blood cells were then lysed at 37° C. using buffered NH4Cl for 5 minutes, followed by centrifugation at 300 g. Cells were subsequently washed with PBS supplemented with 2% FCS and resuspended in 1% paraformaldehyde. Samples were analyzed on a FACSCalibur™ flow cytometer (Becton Dickinson Biosciences). 200,000 events were analyzed for each sample. Data analysis was performed with WinList™ software (Verity Software House). Two independent reviewers viewed each sample to arrive at a consensus on the data.

[4] = tested on: patients with newly diagnosed, previously untreated AML
Procedure: Treatment Plan: Induction. Alvocidib was dose-escalated starting at dose level 1: 20 mg/m^2 30-minute IV bolus followed by 30 mg/m^2 IV infusion over 4 hours on Days 1-3 (FIG. 1). Daunorubicin 60 mg/m^2 IV bolus over 15 minutes was initiated on days 5-7, and cytarabine 100 mg/m^2/day IV continuous 24-hour infusion was administered on Days 5-11. A bone marrow aspirate and biopsy was performed on day 14 (+/−3 days) and patients with residual leukemia (>5% bone marrow blasts and >10% cellularity) were recommended to receive a second induction cycle with alvocidib on days 1-3 (same dose level as induction) followed by daunorubicin 45 mg/m^2/day IV over 15 minutes on days 5 and 6 and cytarabine 100 mg/m^2/day IV continuous infusion over days 5-9 (“5+2”).
Statistical Analysis. Alvocidib dose was escalated using a 3+3 design (FIG. 1). Successive cohorts of patients (3-6 per cohort) were treated with escalated doses until the maximal tolerated dose (MTD) was established. Intra-patient dose escalation was not permitted. Descriptive analysis was performed for the safety and efficacy endpoints. MTD for alvocidib was estimated by the highest alvocidib dose for which the incidence of DLT during Cycle 1 was less than 33% in combination with 7+3. Kaplan-Meier time-to-event analyses were performed on overall survival (OS), relapse-free survival and duration of remission. […]

[5] = tested on: MDS blasts; experiment: MCL-1 dependency assay of MDS blasts after azacitidine pre-treatment; type: cell-based, human; conditions: patient sample MDS1060; MCL-1 dependency cut-off of 40%
Procedure: CD13, CD33, CD34, CD45, CD3 and CD20 were used as markers to identify MDS blasts, and to perform MCL-1 dependency analyses. MDS blasts were positive for CD13, CD33 and CD34, dim for CD45 and negative for CD3 and CD20.
On day 1 of the MCL-1 dependency assay, 5×10^4-1×10^5 HS-5 feeder cells were plated into a 6-well plate, and allowed to attached overnight. HS-5 feeder cells improve viability of frozen MDS bone marrow mononuclear cells (BMMCs) after thawing. On day 2 of the assay, MDS BMMCs were thawed, and divided into three treatment groups corresponding to treatment with DMSO, treatment with 1 μM azacitidine or treatment with 2.5 μM azacitidine. On day 4, after a 48-hour treatment period, MCL-1 dependency of MDS blasts, lymphocytes and monocytes were separately assessed.

[6] = tested on: MCL-1 protein levels in blasts; conditions: cited from earlier work

| Compound | patients who achieved CR without MRD and remain in CR ([1]; 9 patients) [%] | median OS ([1]; 32 patients, median follow-up 9.2 months) | duration of CR, range ([1]; CR patients relapsed to date) | CR patients relapsed to date ([1]; of the 22 CR patients, 7 patients) [%] | median RFS ([1]; time from CR/CRi up to disease relapse or death) | patients who achieved CR without evidence of MRD and relapsed ([1]; two patients) [%] | differences in response to alvocidib in patients with or without MCL-1 dependence ([2]; MCL-1 dependence threshold priming >30%, exploratory analysis) | patients who received re-induction for residual leukemia on day 14 ([2]; all enrolled, 3 patients, re-induction with alvocidib and 5+2) [%] | CR rate ([2]; genomic class AML with NPM1 mutation (8/10)) [%] | CR among patients who received re-induction therapy ([2]; re-induction with alvocidib and 5+2) | MRD-negative among CR patients with ELN adverse-risk disease ([3]; 4/9, flow cytometry and/or institutional standard assessment) [%] | MRD-negative CR in ELN adverse-risk patients ([3]; exploratory cohort, 3 out of 4) [%] | MTD (alvocidib dose) ([4]; IV bolus/IV infusion on Days 1-3, in combination with 7+3) | safety and feasibility of alvocidib administration prior to 7+3 induction ([4]; in vivo) | change of MCL-1 dependency status of blasts [5] | effect on MCL-1 protein levels in blasts [6] |
| --- | --- | --- | --- | --- | --- | --- | --- | --- | --- | --- | --- | --- | --- | --- | --- | --- |
| CN1CC[C@H](c2c(O)cc(O)c3c(=O)cc(-c4ccccc4Cl)oc23)[C@H](O)C1 [alvocidib, 2-(2-chlorophenyl)-5,7-dihydroxy-8-[(3S,4R)-3-hydroxy-1-methylpiperidin-4-yl]chromen-4-one] | 82 | not reached | 1.4-13.6 months | 32 | not reached | 18 | No significant differences | 9 | 80 | None | 44 | 75 | (30/60 mg/m^2) | safe, feasible |  |  |
| Nc1ncn([C@@H]2O[C@H](CO)[C@@H](O)[C@H]2O)c(=O)n1 [azacitidine] |  |  |  |  |  |  |  |  |  |  |  |  |  |  | rendered MCL-1-independent blasts MCL-1 dependent | reduce MCL-1 protein levels in blasts |

Reference: US20220305037A1, “Treatment of Cancer” (Sumitomo Dainippon Pharma Oncology, Inc., priority 2019, published 2022)
